Patent US20250228901A1, “COMPOSITION FOR PREVENTING, ALLEVIATING OR TREATING INFLAMMATORY SKIN DISEASES, COMPRISING CUTIBACTERIUM SP. STRAIN” (CJ Bioscience, Inc., priority 2021, published 2025)

How the values were obtained:
[1] = system: mice in which rosacea is induced; assay: Rosacea animal model induced by LL37 peptide; format: in vivo, BALB/c mice; conditions: for Dermal inflammation (histopathological evaluation score) / Epithelial hyperplasia (histopathological evaluation score): H&E staining of LL37-administered skin, culture products 150 μl i.p. x3, doxycycline 1 mg/kg x3, LL37 = rosacea induction only; for Total (histopathological evaluation score): sum of epithelial hyperplasia and dermal inflammation scores
Procedure: For the present animal effectiveness test, 32 5-week-old female BALB/c mice were purchased from Orient Bio company, and brought into a breeding room with a 12-hour artificial photoperiod, and acclimatized for one week, and then used in the experiment.
To make a rosacea animal model, hair on the mice's back area was removed using a depilator and hair removal cream. In 24 hours after depilation, to induce rosacea lesions, LL37 peptide (Peptron, Co., Ltd) of 320 μM was under intradermal injection using an insulin syringe by 50 μl. […] Doxycycline, which is one of conventional rosacea therapies, was peritoneally administered by 1 mg/kg once a day, for 3 days (total 3 times).
After 24 hours of the last strain culture product administration, the size (area) of erythema was measured using a caliper, and the animals were euthanized using CO2 gas, and then the lesion area was taken as a photograph and the degree of the erythema was observed by naked eyes and the tissue photographs and the area of the inflammation area were shown in FIG. 14a and FIG. 14b as graphs.

Raw264.7 macrophages = assay: Inflammation regulation by living cells co-cultured with Raw264.7 macrophages, IL-6 and IL-10 ELISA; format: cell-based; conditions: living cells co-cultured 1:1 with macrophages, 24 hours; compared to the B. fragilis strain
Procedure: The secured living cells and immunocytes (Raw264.7 macrophages) were co-cultured at the same ratio (1:1) of 5×10^4/well, respectively, in a 96 well plate for 24 hours, and then the inflammation regulation efficacy of the strains was confirmed. As a control group, a B. fragilis strain known as an inflammation alleviating strain was used. The secreted amounts of the inflammatory cytokine (IL-6) and anti-inflammatory cytokine (IL-10) secreted from the macrophages were measured by ELISA, and then values thereof were calculated at a ratio of IL-10/IL-6 and they were shown in FIG. 11.

Compound	Dermal inflammation (histopathological evaluation score) [1]	Epithelial hyperplasia (histopathological evaluation score) [1]	Total (histopathological evaluation score) [1]	secreted amount of the anti-inflammatory cytokine (IL-10) (Raw264.7 macrophages)	secreted amount of the inflammatory cytokine (IL-6) (Raw264.7 macrophages)
C[C@H]1c2cccc(O)c2C(=O)C2=C(O)[C@]3(O)C(=O)C(C(N)=O)=C(O)[C@@H](N(C)C)[C@@H]3[C@@H](O)[C@@H]21 [doxycycline]	2.4	1.2	3.6	–	–
Cutibacterium acnes CJRS-10653	–	–	–	promoted	reduced
Cutibacterium acnes CJRS-10656	–	–	–	promoted	reduced
Cutibacterium acnes CJRS-10654	–	–	–	promoted	reduced
Cutibacterium acnes CJRS-10652	–	–	–	promoted	reduced
LL37	2.5	2.75	5.25	–	–
Cutibacterium acnes CJRS-10651	–	–	–	promoted	reduced
Cutibacterium acnes CJRS-10655	–	–	–	promoted	reduced
